# Test results published in paper PMC6541551 (Journal of psychopharmacology (Oxford, England), 2018).
# Assays:
# [1] = tested on: mice; assay: Forced-swim test; assay type: in vivo, CD-1 mice; details: 15 mg/kg i.p., vs saline
# [2] = rats; ref Moaddel et al., 2015; cited from earlier work
# [3] = Screening of; assay type: in vivo, CD-1 mice; details: male mice, 50 mg/kg, three timepoints; for AUC (systemic exposure to (2R,6R)-HNK): p.o.
Compound,Relative BA (plasma AUClast p.o. / i.p.) [3] [%],also measured
"CNC1(c2ccccc2Cl)CCCCC1=O (racemic) [ketamine, (R,S)-ketamine, reference compound]",–,"Forced-swim test immobility time ([1]; 24-hour re-test, p<0.01): reduced immobility time; Forced-swim test immobility time ([1]; one hour after administration, p<0.05): reduced immobility time"
"N[C@]1(c2ccccc2Cl)CCC[C@H](O)C1=O [(2S,6S)-HNK, (2S,6S)-hydroxynorketamine]",–,oral BA [2]: approximately 46%
CC(=O)O[C@@H]1CCC[C@@](N)(c2ccccc2Cl)C1=O [Compound 2a],28,"AUC (systemic exposure to (2R,6R)-HNK) [3]: 2.26 µg/mL/h"
CCC(=O)O[C@@H]1CCC[C@@](N)(c2ccccc2Cl)C1=O [Compound 2b],30,–
CCCCC(=O)O[C@@H]1CCC[C@@](N)(c2ccccc2Cl)C1=O [Compound 2c],26,–
CCCCCCCC(=O)O[C@@H]1CCC[C@@](N)(c2ccccc2Cl)C1=O [Compound 2d],10,"AUC (systemic exposure to (2R,6R)-HNK) [3]: 0.782 µg/mL/h"
N[C@@]1(c2ccccc2Cl)CCC[C@@H](OC(=O)c2ccccc2)C1=O [Compound 2e],44,–
